The source of these data is patent US20160200733A1, “SUBSTITUTED THIENO[2,3-B]PYRIDINE-2-CARBOXAMIDE ANALOGS AS POSITIVE ALLOSTERIC MODULATORS OF THE MUSCARINIC ACETYLCHOLINE RECEPTOR M4” (Vanderbilt University, priority 2013, published 2016).

This assay concerns the target T1, mAChR hM4 (Homo sapiens, UniProt P08173).
T1 construct: expressed in transfected cells; host or cells: CHO-K1 (Chinese hamster ovary) cells
T1 sequence (P08173 1-479): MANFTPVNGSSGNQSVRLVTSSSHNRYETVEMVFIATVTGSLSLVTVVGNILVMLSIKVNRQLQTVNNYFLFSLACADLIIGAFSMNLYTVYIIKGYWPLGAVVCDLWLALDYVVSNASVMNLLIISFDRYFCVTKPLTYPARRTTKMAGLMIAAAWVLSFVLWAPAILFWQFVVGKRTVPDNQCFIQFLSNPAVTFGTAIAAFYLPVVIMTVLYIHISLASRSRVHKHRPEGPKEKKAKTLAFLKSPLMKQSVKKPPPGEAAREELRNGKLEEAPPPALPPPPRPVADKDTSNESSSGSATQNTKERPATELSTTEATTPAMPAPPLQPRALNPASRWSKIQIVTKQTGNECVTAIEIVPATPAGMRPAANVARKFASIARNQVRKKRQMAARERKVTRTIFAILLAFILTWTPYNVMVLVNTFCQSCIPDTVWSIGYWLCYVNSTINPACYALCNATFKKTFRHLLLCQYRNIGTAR
The experiment in a line: mAChR M4 cell-based functional assay (calcium flux, potentiation of EC20 acetylcholine response). Particulars: mAChR hM4 cell-line; for Emax at 30 µM: % ACh maximum at 30 μM; for EC50: >10,000 estimated for low potency compounds lacking a plateau. The procedure, abridged: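 CHO-K1 cells expressing human M4, loaded with Fluo-4 Ca2+ dye; potentiation of an EC20 acetylcholine response read as increase in fluorescence static ratio. EC50 and Emax from concentration-dependent increase over the EC20 response.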

Where only a bound is given, the exact number is not on record here.

As usually defined, the Emax is the maximal effect, on the per cent scale that the assay sets. The term EC50 denotes the concentration needed to bring the measured effect to its halfway point. Consider `Cc1nc2sc(C(=O)NC3(C)COC3)c(Cl)c2c(C)c1Cl` [Compound 122, 3,5-dichloro-4,6-dimethyl-N-(3-methyloxetan-3-yl)thieno[2,3-b]pyridine-2-carboxamide], for which the Emax at 30 µM is 61% and the half-maximal effective concentration (EC50) was 2.6 µM.
The like results for `Cc1nc2sc(C(=O)NC3CCC3)c(Cl)c2c(C)c1Cl` [Compound 123, 3,5-dichloro-N-cyclobutyl-4,6-dimethylthieno[2,3-b]pyridine-2-carboxamide] were, in that order, 34% and more than 10 µM.
The matching figures for `Cc1nc2sc(C(=O)NC3CCOC3)c(Cl)c2c(C)c1Cl` (stereo not shown) [Compound 124, 3,5-dichloro-4,6-dimethyl-N-(tetrahydrofuran-3-yl)thieno[2,3-b]pyridine-2-carboxamide]: 43% and 1.2 µM.
On to `Cc1nc2sc(C(=O)NCC3(C)COC3)c(Cl)c2c(C)c1Cl` [Compound 125, 3,5-dichloro-4,6-dimethyl-N-((3-methyloxetan-3-yl)methyl)thieno[2,3-b]pyridine-2-carboxamide], for which the EC50 is more than 10 µM.
Consider `Cc1nc2sc(C(=O)NC3COC3)c(Cl)c2c(C)c1Cl` [Compound 126, 3,5-dichloro-4,6-dimethyl-N-(oxetan-3-yl)thieno[2,3-b]pyridine-2-carboxamide], for which the maximal effect (Emax) at 30 µM turned out to be 67% and the concentration giving a half-maximal response (EC50) is 0.53 µM.
With `Cc1nc2sc(C(=O)NC3[C@H]4C[C@@H]3C4)c(Cl)c2c(C)c1Cl` (stereo partly shown) [Compound 127, N-((1s,3s)-bicyclo[1.1.1]pentan-2-yl)-3,5-dichloro-4,6-dimethylthieno[2,3-b]pyridine-2-carboxamide], the Emax at 30 µM is 35% and the EC50 is more than 10 µM.
The matching figures for `Cc1nc2sc(C(=O)NC3CC(F)(F)C3)c(Cl)c2c(C)c1Cl` [Compound 128, 3,5-dichloro-N-(3,3-difluorocyclobutyl)-4,6-dimethylthieno[2,3-b]pyridine-2-carboxamide]: 33% and more than 10 µM.
With `Cc1nc2sc(C(=O)NCC3CCC3)c(Cl)c2c(C)c1Cl` [Compound 129, 3,5-dichloro-N-(cyclobutylmethyl)-4,6-dimethylthieno[2,3-b]pyridine-2-carboxamide], the concentration for a half-maximal effect (EC50) was more than 10 µM.
On the same count and under the same terms, the result for `Cc1cc(C)c2c(Br)c(C(=O)NC(C)C)sc2n1` [Example 1, 3-bromo-N-isopropyl-4,6-dimethylthieno[2,3-b]pyridine-2-carboxamide] reads more than 10 µM.
Regarding `Cc1cc(C)c2c(Br)c(C(=O)NC3COC3)sc2n1` [Example 2, 3-bromo-4,6-dimethyl-N-(oxetan-3-yl)thieno[2,3-b]pyridine-2-carboxamide], the maximal response (Emax) at 30 µM was 68% and the concentration for a half-maximal effect (EC50) was 3.3 µM.
The like results for `Cc1cc(C)c2c(Br)c(C(=O)N3CCCC3)sc2n1` [Example 3, (3-bromo-4,6-dimethylthieno[2,3-b]pyridin-2-yl)(pyrrolidin-1-yl)methanone] were, in that order, 44% and 3.9 µM.
